Test results: patent US9790229B2, “Bruton's tyrosine kinase inhibitors” (priority 2009, dated 2017)

Molecular target: BTK (Homo sapiens (Human), UniProt Q06187)
Test: In vitro BTK kinase assay: BTK-POLYGAT-LS ASSAY
Settings: not given

Sequence of BTK (Q06187 whole entry): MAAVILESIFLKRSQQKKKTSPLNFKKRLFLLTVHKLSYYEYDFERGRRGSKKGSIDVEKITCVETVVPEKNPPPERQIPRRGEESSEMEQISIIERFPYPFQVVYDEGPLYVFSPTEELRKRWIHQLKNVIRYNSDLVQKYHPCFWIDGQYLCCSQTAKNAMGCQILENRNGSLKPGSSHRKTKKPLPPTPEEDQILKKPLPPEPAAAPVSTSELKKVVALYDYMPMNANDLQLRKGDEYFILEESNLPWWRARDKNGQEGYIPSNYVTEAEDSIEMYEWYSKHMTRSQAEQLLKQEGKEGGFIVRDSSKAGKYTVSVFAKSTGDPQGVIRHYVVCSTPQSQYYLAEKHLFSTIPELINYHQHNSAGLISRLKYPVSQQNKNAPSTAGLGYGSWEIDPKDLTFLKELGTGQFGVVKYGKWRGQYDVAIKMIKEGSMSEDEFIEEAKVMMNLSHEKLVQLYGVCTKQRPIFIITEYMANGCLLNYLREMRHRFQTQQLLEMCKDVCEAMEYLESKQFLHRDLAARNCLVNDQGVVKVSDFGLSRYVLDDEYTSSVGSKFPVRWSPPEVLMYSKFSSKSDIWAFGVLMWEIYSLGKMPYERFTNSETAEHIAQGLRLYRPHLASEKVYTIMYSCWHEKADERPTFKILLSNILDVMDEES

Structure (SMILES) | IC50 [µM]
O=C(Nc1ccsc1)Nc1cccc(C2CCCN(c3ncnc4[nH]ccc34)C2)c1 (centres unmarked) [Cmpd 32, 1-(3-(1-(7H-pyrrolo[2,3-d]pyrimidin-4-yl)piperidin-3-yl)phenyl)-3-(thiophen-3-yl)urea] | 1 to 10
Nc1ncnc(N2CCC[C@@H](N3CCCC(Nc4ccccc4C(=O)O)C3=O)C2)c1F (stereo partly drawn) [compound 297, 2-((3′R)-1′-(6-Amino-5-fluoropyrimidin-4-yl)-2-oxo-1,3′-bipiperidin-3-ylamino)benzoic acid] | 1 to 10
c1ccc(Nc2nc3ccc(C4CCCN(c5ncnc6[nH]ccc56)C4)cc3[nH]2)cc1 (centres unmarked) [compound 105, 6-(1-(7H-pyrrolo[2,3-d]pyrimidin-4-yl)piperidin-3-yl)-N-phenyl-1H-benzo[d]imidazol-2-amine] | 1 to 10
O=C(CCc1ccccc1)Nc1cccc(C2CCCN(c3ncnc4[nH]ccc34)C2)c1 (centres unmarked) [Cmpd 23, N-(3-(1-(7H-pyrrolo[2,3-d]pyrimidin-4-yl)piperidin-3-yl)phenyl)-3-phenylpropanamide] | 1 to 10
c1ccc(Nc2cccc(C3CCCN(c4ncnc5[nH]ccc45)C3)c2)nc1 (centres unmarked) [compound 140, N-(3-(1-(7H-pyrrolo[2,3-d]pyrimidin-4-yl)piperidin-3-yl)phenyl)pyridin-2-amine] | 1 to 10
CC(C)(O)c1ccccc1NC(=O)Nc1cccc(C2CCCN(c3ncnc4[nH]ccc34)C2)c1 (centres unmarked) [compound 195] | 1 to 10
CN(C)[C@@H]1CCN(c2ccccc2NC(=O)Nc2cccc(C3CCCN(c4ncnc5[nH]ccc45)C3)c2)C1 (some centres unmarked) [compound 210] | 1 to 10
CC(C)(C)c1ccccc1NC(=O)Nc1cccc([C@@H]2CCCN(c3ncnc4[nH]ccc34)C2)c1 [compound 189] | 1 to 10
COc1ncccc1NC(=O)Nc1cccc(C2CCCN(c3ncnc4[nH]ccc34)C2)c1 (centres unmarked) [compound 215] | 1 to 10
O=C(Nc1ccccc1)Nc1cccc(C2CCCN(c3ncnc4[nH]ncc34)C2)c1 (centres unmarked) [Cmpd 91, 1-(3-(1-(1H-pyrazolo[3,4-d]pyrimidin-4-yl)piperidin-3-yl)phenyl)-3-phenylurea] | 1 to 10
O=C(Nc1cccc(C2CCCN(c3ncnc4[nH]ccc34)C2)c1)Nc1ccccc1F (centres unmarked) [compound 182] | 1 to 10

Same assay, conditions: read-out: IC50 (10 uM ATP)

Structure (SMILES) | IC50 [µM]
Nc1ncnc(N2CCC[C@@H](N3CCC[C@H](Nc4cc(Cl)cc(C(F)(F)F)c4)C3=O)C2)c1F [compound 312, (3S,3′R)-1′-(6-Amino-5-fluoropyrimidin-4-yl)-3-(3-chloro-5-(trifluoromethyl)phenylamino)-1,3′-bipiperidin-2-one] | < 0.1
Nc1ncnc(N2CCC[C@@H](N3CCC[C@@H](Nc4cc(Cl)cc(C(F)(F)F)c4)C3=O)C2)c1F [compound 311, (3R,3′R)-1′-(6-Amino-5-fluoropyrimidin-4-yl)-3-(3-chloro-5-(trifluoromethyl)phenylamino)-1,3′-bipiperidin-2-one] | < 0.1

Same assay, conditions: read-out: IC50 (10 uM ATP); 10 uM ATP; in vitro Btk kinase assay, Example 41

Structure (SMILES) | IC50 [µM]
CC1(C)[C@@H]2CCC(CNC(=O)Nc3cccc(C4CCCN(c5ncnc6[nH]ccc56)C4)c3)[C@H]1C2 (some centres unmarked) [compound 258] | > 10
CC(C)(C)c1ccc(NC(=O)Nc2cccc(C3CCCN(c4ncnc5[nH]ccc45)C3)c2)cc1 (centres unmarked) [compound 263] | > 10
Nc1ncnc(N2CC[C@@H](F)[C@@H](N3CCC[C@@H](Nc4cc(F)cc(Cl)c4)C3=O)C2)c1F [compound 341, (3R,3′S,4′R)-1′-(6-amino-5-fluoropyrimidin-4-yl)-3-(3-chloro-5-fluorophenylamino)-4′-fluoro-1,3′-bipiperidin-2-one] | < 0.1
Cc1ccc(C2CCCN(c3ncnc4[nH]ccc34)C2)cc1NC(=O)Nc1ccccc1 (centres unmarked) [Cmpd 81, 1-(5-(1-(7H-pyrrolo[2,3-d]pyrimidin-4-yl)piperidin-3-yl)-2-methylphenyl)-3-phenylurea] | > 10
Nc1ncnc(N2CC[C@H](O)[C@@H](N3CCC[C@@H](Nc4cc(Cl)cc(Cl)c4)C3=O)C2)c1F [compound 326, trans (3R)-1′-(6-Amino-5-fluoropyrimidin-4-yl)-3-(3,5-dichlorophenylamino)-4′-hydroxy-1,3′-bipiperidin-2-one] | < 0.1
CN1CCCC(CNC(=O)Nc2cccc(C3CCCN(c4ncnc5[nH]ccc45)C3)c2)C1 (centres unmarked) [compound 225] | > 10
Nc1ncnc(N2CCC[C@@H](N3CCCC(Nc4cc(F)cc(Cl)c4)C3=O)C2)c1F (stereo in doubt) [compound 314, (3S,3′R)-1′-(6-Amino-5-fluoropyrimidin-4-yl)-3-(3-chloro-5-fluorophenylamino)-1,3′-bipiperidin-2-one] | < 0.1
O=C(Nc1cccc(C2CCCN(c3ncnc4[nH]ccc34)C2)c1)Nc1ccncc1Cl (centres unmarked) [compound 222] | > 10
O=C1C(Nc2ccccc2S(=O)(=O)N2CCCCC2)CCCN1[C@@H]1CCCN(c2ncnc3[nH]ccc23)C1 (stereo partly drawn) [compound 318, (3′R)-3-(2-(Piperidin-1-ylsulfonyl)phenylamino)-1′-(7H-pyrrolo[2,3-d]pyrimidin-4-yl)-1,3′-bipiperidin-2-one] | < 0.1
O=C(Nc1cccc(C2CCCN(c3ncnc4[nH]ccc34)C2)c1)Nc1c(F)cccc1N1CCCC1 (centres unmarked) [compound 146] | < 0.1
CNc1c(Nc2cccc(C3CCCN(c4ncnc5[nH]ccc45)C3)c2)c(=O)c1=O (centres unmarked) [Cmpd 72, 3-(3-(1-(7H-pyrrolo[2,3-d]pyrimidin-4-yl)piperidin-3-yl)phenylamino)-4-(methylamino)cyclobut-3-ene-1,2-dione] | > 10
N#C/N=C(/NCC1CCCCC1)Nc1cccc(C2CCCN(c3ncnc4[nH]ccc34)C2)c1 (centres unmarked) [Cmpd 76, (E)-1-(3-(1-(7H-pyrrolo[2,3-d]pyrimidin-4-yl)piperidin-3-yl)phenyl)-2-cyano-3-(cyclohexylmethyl)guanidine] | > 10
Cc1noc(C)c1NC(=O)Nc1cccc(C2CCCN(c3ncnc4[nH]ccc34)C2)c1 (centres unmarked) [compound 254] | > 10
Cc1nn(C)c(C)c1NC(=O)Nc1cccc(C2CCCN(c3ncnc4[nH]ccc34)C2)c1 (centres unmarked) [compound 244] | > 10
CC(C)(C)CNC1CCCN([C@@H]2CCCN(c3ncnc(N)c3F)C2)C1=O (stereo partly drawn) [compound 292, (3′R)-1′-(6-Amino-5-fluoropyrimidin-4-yl)-3-(neopentylamino)-1,3′-bipiperidin-2-one] | > 10
Nc1ncnc(N2C[C@@H](F)C[C@@H](N3CCCC(Nc4cc(F)cc(Cl)c4)C3=O)C2)c1F (stereo partly drawn) [compound 279, (3′R, 5′S)-1′-(6-Amino-5-fluoropyrimidin-4-yl)-3-(3-chloro-5-fluorophenylamino)-5′-fluoro-1,3′-bipiperidin-2-one] | < 0.1
O=C1C(Nc2cc(Cl)cc(C(F)(F)F)c2)CCCN1[C@@H]1CCCN(c2ncnc3[nH]ccc23)C1 (stereo partly drawn) [compound 300, (3′R)-3-(3-Chloro-5-(trifluoromethyl)phenylamino)-1′-(7H-pyrrolo[2,3-d]pyrimidin-4-yl)-1,3′-bipiperidin-2-one] | < 0.1
N#Cc1ccccc1NC(=O)Nc1cccc(C2CCCN(c3ncnc4[nH]ccc34)C2)c1 (centres unmarked) [Cmpd 65, 1-(3-(1-(7H-pyrrolo[2,3-d]pyrimidin-4-yl)piperidin-3-yl)phenyl)-3-(2-cyanophenyl)urea] | > 10
CCOC(=O)CCc1c(N)ncnc1N1CCCC(c2cccc(NC(=O)Nc3ccccc3)c2)C1 (centres unmarked) [compound 253] | > 10
Nc1ncnc(N2CCC[C@@H](N3CC(O)C(O)C[C@@H](Nc4cc(F)cc(Cl)c4)C3=O)C2)c1F (stereo partly drawn) [compound 348, (3R)-1-((R)-1-(6-amino-5-fluoropyrimidin-4-yl)piperidin-3-yl)-3-(3-chloro-5-fluorophenylamino)-5,6-dihydroxyazepan-2-one] | < 0.1
CC(C)(C)c1ccccc1NC(=O)Nc1cccc([C@H]2CCCN(c3ncnc4[nH]ccc34)C2)c1 [compound 156] | < 0.1
Nc1ncnc(N2CCC[C@@H](N3CCCC(NC4CCC(F)(F)CC4)C3=O)C2)c1F (stereo partly drawn) [compound 294, (3′R)-1′-(6-Amino-5-fluoropyrimidin-4-yl)-3-(4,4-difluorocyclohexylamino)-1,3′-bipiperidin-2-one] | > 10
